Experimental data as given in patent publication US9686985B2, “Fungicide N-cycloalkyl-N-bicyclicmethylene-carboxamide derivatives” (BAYER INTELLECTUAL PROPERTY GMBH, priority 2012, dated 2017).

Key:
[1] = system: Pyrenophora teres; assay: Example N: in vivo preventive test on Pyrenophora teres (barley); conditions: table N; 500 ppm; barley plants; grading 14 days after contamination
Protocol: Example N: In Vivo Preventive Test on Pyrenophora teres (Barley) […] Barley plants (“Plaisant” variety), sown in starter cups on a 50/50 peat soil pozzolana substrate and grown at 22° C., are treated at the 1 leaf stage (10 cm height) by spraying with the active ingredient prepared as described above. Plants, used as controls, are treated with the mixture of acetone/tween/DMSO/water not containing the active material. After 24 hours, the plants are contaminated by spraying the leaves with an aqueous suspension of Pyrenophora teres spores (12 000 spores per mL). The spores are collected from a 12-day-old culture. The contaminated barley plants are incubated for 48 hours at 20° C. and at 100% relative humidity, and then for 12 days at 20° C. at 70-80% relative humidity. Grading (% of efficacy) is carried out 14 days after the contamination, in comparison with the control plants.

[2] = system: Alternaria brassicae; assay: Example D: in vivo preventive test on Alternaria brassicae (leaf spot on radish); conditions: table D; 500 ppm; radish plants; grading 6 days after contamination
Protocol: Example D: In Vivo Preventive Test on Alternaria brassicae (Leaf Spot on Radish) […] Radish plants (“Pernod Clair” variety), sown in starter cups on a 50/50 peat soil pozzolana substrate and grown at 17° C., are treated at the cotyledon stage by spraying with the active ingredient prepared as described above. Plants, used as controls, are treated with the mixture of acetone/tween/DMSO/water not containing the active material. After 24 hours, the plants are contaminated by spraying the cotyledons with an aqueous suspension of Alternaria brassicae spores (50 000 spores per mL). The spores are collected from a 15-day-old culture. The contaminated radish plants are incubated at 20° C. and at 100% relative humidity. Grading (% of efficacy) is carried out 6 days after the contamination, in comparison with the control plants.

[3] = log P by HPLC on reversed-phase column (EEC Directive 79/831 Annex V.A8); format: physicochemical; conditions: Table 1; HPLC C18, 40° C., 0.1% aqueous formic acid and acetonitrile gradient
Protocol: In table 1, the log P values were determined in accordance with EEC Directive 79/831 Annex V.A8 by HPLC (High Performance Liquid Chromatography) on a reversed-phase column (C 18), using the method described below: Temperature: 40° C.; Mobile phases: 0.1% aqueous formic acid and acetonitrile; linear gradient from 10% acetonitrile to 90% acetonitrile. Calibration was carried out using unbranched alkan-2-ones (comprising 3 to 16 carbon atoms) with known log P values (determination of the log P values by the retention times using linear interpolation between two successive alkanones). lambda-max-values were determined using UV-spectra from 200 nm to 400 nm and the peak values of the chromatographic signals.

[4] = system: Septoria tritici; assay: Example L: in vivo preventive test on Septoria tritici (wheat); conditions: table L; 500 ppm; wheat plants; grading 24 days after contamination
Protocol: Example L: In Vivo Preventive Test on Septoria tritici (Wheat) […] Wheat plants (“Scipion” variety), sown in starter cups on a 50/50 peat soil pozzolana substrate and grown at 22° C., are treated at the 1 leaf stage (10 cm height) by spraying with the active ingredient prepared as described above. Plants, used as controls, are treated with the mixture of acetone/tween/DMSO/water not containing the active material. After 24 hours, the plants are contaminated by spraying the leaves with an aqueous suspension of cryopreserved Septoria tritici spores (500 000 spores per mL). The contaminated wheat plants are incubated for 72 hours at 18° C. and at 100% relative humidity, and then for 21 days at 90% relative humidity. Grading (% of efficacy) is carried out 24 days after the contamination, in comparison with the control plants.

[5] = system: Sphaerotheca fuliginea; assay: Example B: in vivo preventive test on Sphaerotheca fuliginea (powdery mildew on cucurbits); conditions: table B; 500 ppm; gherkin plants; grading 12 days after contamination
Protocol: Example B: In Vivo Preventive Test on Sphaerotheca fuliginea (Powdery Mildew on Cucurbits) […] Gherkin plants (“Vert petit de Paris” variety), sown in starter cups on a 50/50 peat soil-pozzolana substrate and grown at 24° C., are treated at the Z11 cotyledon stage by spraying with the active ingredient prepared as described above. Plants, used as controls, are treated with the mixture of acetone/tween/DMSO/water not containing the active material. After 24 hours, the plants are contaminated by spraying the cotyledons with an aqueous suspension of Sphaerotheca fuliginea spores (100 000 spores per mL). The spores are collected from infected plants. The contaminated gherkin plants are incubated at about 20° C. and at 70-80% relative humidity. Grading (% of efficacy) is carried out 12 days after the contamination, in comparison with the control plants.

[6] = system: Uromyces appendiculatus; assay: Example G: in vivo preventive test on Uromyces appendiculatus (bean rust); conditions: bean plants
Protocol: Example G: In Vivo Preventive Test on Uromyces appendiculatus (Bean Rust) […] Bean plants (“Saxa” variety), sown in starter cups on a 50/50 peat soil pozzolana substrate and grown at 24° C., are treated at the 2 leaf stage (9 cm height) by spraying with the active ingredient prepared as described above. Plants, used as controls, are treated with the mixture of acetone/tween/DMSO/water not containing the active material. After 24 hours, the plants are contaminated by spraying the leaves with an aqueous suspension of Uromyces appendiculatus spores (150 000 spores per mL). The spores are collected from infected plants and are suspended in water containing 2.5 mL/L of Tween 80 at 10%. The contaminated bean plants are incubated for 24 hours at 20° C. and at 100% relative humidity, and then for 10 days at 20° C. and at 70-80% relative humidity. Grading (% of efficacy) is carried out 11 days after the contamination, in comparison with the control plants.

[7] = system: Botrytis cinerea; assay: Example S: in vivo preventive test on Botrytis cinerea (grey mould); conditions: table S; 500 ppm; gherkin plants; grading 4 to 5 days after contamination
Protocol: Example S: In Vivo Preventive Test on Botrytis cinerea (Grey Mould) […] Gherkin plants (“Vert petit de Paris” variety), sown in starter cups on a 50/50 peat soil pozzolana substrate and grown at 24° C., are treated at the Z11 cotyledon stage by spraying with the active ingredient prepared as described above. Plants, used as controls, are treated with the mixture of acetone/tween/DMSO/water not containing the active material. After 24 hours, the plants are contaminated by spraying the cotyledons with an aqueous suspension of cryopreserved Botrytis cinerea spores (50 000 spores per mL). The spores are suspended in a nutrient solution composed of 10 g/L of PDB, 50 g/L of D-Fructose, 2 g/L of NH4NO3 and 1 g/L of KH2PO4. The contaminated gherkin plants are incubated at 17° C. and at 90% relative humidity. Grading (% of efficacy) is carried out 4 to 5 days after the contamination, in comparison with the control plants.

[8] = system: Puccinia recondita; assay: Example R: in vivo preventive test on Puccinia recondita (brown rust on wheat); conditions: table R; 500 ppm; wheat plants; grading 12 days after contamination
Protocol: Example R: In Vivo Preventive Test on Puccinia recondita (Brown Rust on Wheat) […] Wheat plants (“Scipion” variety), sown in starter cups on a 50/50 peat soil pozzolana substrate and grown at 22° C., are treated at the 1 leaf stage (10 cm height) by spraying with the active ingredient prepared as described above. Plants, used as controls, are treated with the mixture of acetone/tween/DMSO/water not containing the active material. After 24 hours, the plants are contaminated by spraying the leaves with an aqueous suspension of Puccinia recondita spores (100 000 spores per mL). The spores are collected from an infected plant and are suspended in water containing 2.5 mL/L of Tween 80 at 10%. The contaminated wheat plants are incubated for 24 hours at 20° C. and at 100% relative humidity, and then for 10 days at 20° C. and at 70-80% relative humidity. Grading (% of efficacy) is carried out 12 days after the contamination, in comparison with the control plants.

[9] = system: Pyricularia oryzae; format: in vivo; conditions: table Q; 500 ppm; rice plants; grading 6 days after contamination
[10] = system: Alternaria solani; assay: Example C: in vivo preventive test on Alternaria solani (tomato); conditions: table C2, dose 100 ppm, comparison with WO-2010/086311 compound
Protocol: Example C: In Vivo Preventive Test on Alternaria solani (Tomato) [table] To produce a suitable preparation of active compound, 1 part by weight of active compound is mixed with the stated amounts of solvent and emulsifier, and the concentrate is diluted with water to the desired concentration. To test for preventive activity, young plants are sprayed with the preparation of active compound at the stated rate of application. One day after this treatment, the plants are inoculated with an aqueous spore suspension of Alternaria solani. The plants remain for one day in an incubation cabinet at approximately 22° C. and a relative atmospheric humidity of 100%. Then the plants are placed in an incubation cabinet at approximately 20° C. and a relative atmospheric humidity of 96%.

[11] = table G1, 500 ppm, grading 11 days after contamination

Structure (SMILES) | Efficacy [1] [%] | Efficacy [2] [%] | logP [3] | Efficacy [4] [%] | Efficacy [5] [%] | Efficacy [6, 11] [%] | Efficacy [7] [%] | Efficacy [8] [%] | Efficacy [9] [%] | Efficacy ([6]; table G2, dose 100 ppm) [%] | Efficacy ([6]; table G2, dose 500 ppm) [%] | Efficacy [10] | Efficacy ([10]; listed as I.2 from WO-2010/086311) [%]
Cn1nc(C(F)F)c(C(=O)N(CC2CCCCc3ccccc32)C2CC2)c1F (stereo not drawn) [I.30] | 100 | 100 | 3.90 | 100 | 100 | 100 | 100 | 94 | – | – | – | – | –
Cc1cccc2c1CCC2CN(C(=O)c1c(C(F)F)nn(C)c1F)C1CC1 (stereo not drawn) [I.3] | 100 | 97 | 3.71 | 100 | 100 | 100 | – | 94 | 97 | 88 | 100 | – | –
Cn1nc(C(F)F)c(C(=O)N(CC2CCOc3ccccc32)C2CC2)c1F (stereo not drawn) [I.31] | 100 | 100 | 3.00 | 100 | 100 | 94 | 100 | 83 | – | – | – | – | –
Cn1nc(C(F)F)c(C(=O)N(CC2CCc3cccc(Br)c32)C2CC2)c1F (stereo not drawn) [I.21] | 79 | 100 | 3.92 | 93 | 100 | 98 | – | 88 | 83 | – | – | – | –
Cn1nc(C(F)F)c(C(=S)N(CC2CC(C)(C)c3ccccc32)C2CC2)c1F (stereo not drawn) [I.11] | 100 | 100 | 4.69 | 100 | 100 | – | 100 | 94 | – | – | – | – | –
Cn1nc(C(F)F)c(C(=O)N(CC2CCSc3ccc(Cl)cc32)C2CC2)c1F (stereo not drawn) [I.36] | 94 | 100 | 3.83 | 79 | 85 | 100 | 97 | 78 | – | – | – | – | –
Cc1nn(C)c(F)c1C(=O)N(C1CC1)C(C)C1CCCc2ccccc21 (stereo not drawn) [1.2 from WO-2010/086311, N-cyclopropyl-5-fluoro-1,3-dimethyl-N-[1-(1,2,3,4-tetrahydronaphthalen-1-yl)ethyl]-1H-pyrazole-4-carboxamide, reference compound] | – | – | – | – | – | – | – | – | – | – | – | no protection | 0
CC1CCC(CN(C(=O)c2c(C(F)F)nn(C)c2F)C2CC2)c2ccccc21 (stereo not drawn) [I.24] | 100 | 100 | 3.96 | 100 | 100 | 100 | 100 | 94 | – | – | – | – | –
Cn1nc(C(F)F)c(C(=O)N(CC2CCc3cccc(Cl)c32)C2CC2)c1F (stereo not drawn) [I.14] | 93 | 100 | 3.80 | 97 | 100 | 100 | – | 81 | 75 | 50 | 100 | – | –
Cn1nc(C(F)F)c(C(=O)N(CC2CCc3ccc(C(F)(F)F)cc32)C2CC2)c1F (stereo not drawn) [I.17] | 86 | – | 3.87 | 94 | 100 | 100 | 100 | 100 | – | – | – | – | –
Cn1nc(C(F)F)c(C(=O)N(CC2CCc3c(F)cccc32)C2CC2)c1Cl (stereo not drawn) [I.8] | 86 | – | 3.55 | 71 | 100 | – | – | 75 | 83 | – | – | – | –
Cn1nc(C(F)F)c(C(=S)N(CC2CCc3c(Cl)cc(Cl)cc32)C2CC2)c1F (stereo not drawn) [I.20] | 100 | 100 | 5.22 | 97 | 100 | 100 | 75 | 83 | – | – | – | – | –
